# Laboratory results reported in patent publication US9403831B2, “Triazolopyrazine derivative and use thereof” (KOREA RESEARCH INSTITUTE OF CHEMICAL TECHNOLOGY, priority 2013, dated 2016).
# Counter-ions that a name gives are not always drawn.
# What was measured:
# c-Met enzyme = c-Met enzyme (Homo sapiens (Human), UniProt P08581); experiment: c-Met kinase inhibitory activity (DELFIA time-resolved fluorescence); type: biochemical; details: c-Met kinase activity reduced to 50%
# Protocol: The c-Met kinase inhibitory activity was analyzed using dissociation enhanced lanthanide fluoro-immunoassay (DELFIA, Perkin Elmer), which is a kind of time-resolved fluorescence (TRF). […] of the compound prepared in the present invention, as a test compound, was put in a Greiner 96-well V-shaped bottom plate, and a tyrosin kinase buffer ([…]) mixed with a c-Met enzyme was added thereto, and then the enzyme and the test compound were stirred for 15 minutes, followed by culturing. An ATP solution ([…]) was added thereto to proceed with a kinase reaction at room temperature for 30 minutes, and then a 50 mM […] solution (EDTA, […]) was added to stop the reaction. After that, the reaction mixture was transferred to a plate coated with Streptavidin, followed by culturing under shaking. After 2 hours, the cultured material was washed three times with a PBS-T buffer (PBS 0.05% Tween 20).
# The europium-labeled anti-phosphotyrosine antibody was diluted to 1:[…] of the diluent was added per well, followed by culturing under shaking. After 1 hour, the cultured material was washed three times with a PBS-T buffer (PBS 0.05% Tween 20).
# [1] = tested on: gastric cancer cell line Hs746T; experiment: Cancer cell proliferation inhibitory test (SRB or MTS assay, 72 hours); type: cell-based; details: Homo sapiens, cancer cell (Hs746T) proliferation inhibition, culturing with compound for 72 hours
# Protocol: The drug used in the test was diluted to a desired concentration as a test medium, and the final concentration of dimethyl sulfoxide was 0.5% or less.
# All the cancer cell lines used in the test originated from the human body, and gastric cancer cell lines Hs746T and MKN-45 were used.
# 5×10^3 cells of Hs746T were dispensed to each well of the 96-well flat bottom micro-plate. MKN-45 was dispensed at 1×10^4 cells. The cells were cultured for 24 hours, so that the cells adhered to the bottom, and then the culture liquid was removed. The culture liquid containing each of the compounds of the present invention was added, followed by culturing for 72 hours. After the culturing with the compound was completed, the cytotoxicity was measured using protein stain reagent SRB or MTS assay.
# Specifically, after the culturing with the compound of the present invention was completed, the cultured liquid was removed. Each well was treated with a cool TCA solution, and allowed to stand at 4° C. for 1 hour to fix cells. The TCA solution was removed, followed by drying at room temperature, and then a stain solution containing 0.4% SRB dissolved in 1% acetic acid solution was added, and then the mixture was allowed to stand for 30 minutes to stain cells. […] The absorbance of each well was measured at a wavelength range of 520 nm using an Eliza reader (micro-plate reader).
# The drug cytotoxicity was measured from the OD values for the well added without the drug (C), each well added with the drug (T), and the well initially added with the drug (Tz): [(T−Tz)/(C−Tz)]×100 for […]; or [(T−Tz)/(Tz)]×100 for Tz>T.
# The cancer cell inhibitory activity measurement using MTS assay was conducted as follows. Specifically, after the culturing with the compound of the present invention was completed, the PMS solution and MTS solution constituting the CellTiter 96® AQueous Non-Radioactive Cell Proliferation Assay product from Promega Co. were mixed, and 20 μL was put into each well. After the cells were placed in an incubator for 4 hours, and then taken out and allowed to stand at room temperature for 10 minutes.
# Chain of c-Met enzyme (P08581 25-1390): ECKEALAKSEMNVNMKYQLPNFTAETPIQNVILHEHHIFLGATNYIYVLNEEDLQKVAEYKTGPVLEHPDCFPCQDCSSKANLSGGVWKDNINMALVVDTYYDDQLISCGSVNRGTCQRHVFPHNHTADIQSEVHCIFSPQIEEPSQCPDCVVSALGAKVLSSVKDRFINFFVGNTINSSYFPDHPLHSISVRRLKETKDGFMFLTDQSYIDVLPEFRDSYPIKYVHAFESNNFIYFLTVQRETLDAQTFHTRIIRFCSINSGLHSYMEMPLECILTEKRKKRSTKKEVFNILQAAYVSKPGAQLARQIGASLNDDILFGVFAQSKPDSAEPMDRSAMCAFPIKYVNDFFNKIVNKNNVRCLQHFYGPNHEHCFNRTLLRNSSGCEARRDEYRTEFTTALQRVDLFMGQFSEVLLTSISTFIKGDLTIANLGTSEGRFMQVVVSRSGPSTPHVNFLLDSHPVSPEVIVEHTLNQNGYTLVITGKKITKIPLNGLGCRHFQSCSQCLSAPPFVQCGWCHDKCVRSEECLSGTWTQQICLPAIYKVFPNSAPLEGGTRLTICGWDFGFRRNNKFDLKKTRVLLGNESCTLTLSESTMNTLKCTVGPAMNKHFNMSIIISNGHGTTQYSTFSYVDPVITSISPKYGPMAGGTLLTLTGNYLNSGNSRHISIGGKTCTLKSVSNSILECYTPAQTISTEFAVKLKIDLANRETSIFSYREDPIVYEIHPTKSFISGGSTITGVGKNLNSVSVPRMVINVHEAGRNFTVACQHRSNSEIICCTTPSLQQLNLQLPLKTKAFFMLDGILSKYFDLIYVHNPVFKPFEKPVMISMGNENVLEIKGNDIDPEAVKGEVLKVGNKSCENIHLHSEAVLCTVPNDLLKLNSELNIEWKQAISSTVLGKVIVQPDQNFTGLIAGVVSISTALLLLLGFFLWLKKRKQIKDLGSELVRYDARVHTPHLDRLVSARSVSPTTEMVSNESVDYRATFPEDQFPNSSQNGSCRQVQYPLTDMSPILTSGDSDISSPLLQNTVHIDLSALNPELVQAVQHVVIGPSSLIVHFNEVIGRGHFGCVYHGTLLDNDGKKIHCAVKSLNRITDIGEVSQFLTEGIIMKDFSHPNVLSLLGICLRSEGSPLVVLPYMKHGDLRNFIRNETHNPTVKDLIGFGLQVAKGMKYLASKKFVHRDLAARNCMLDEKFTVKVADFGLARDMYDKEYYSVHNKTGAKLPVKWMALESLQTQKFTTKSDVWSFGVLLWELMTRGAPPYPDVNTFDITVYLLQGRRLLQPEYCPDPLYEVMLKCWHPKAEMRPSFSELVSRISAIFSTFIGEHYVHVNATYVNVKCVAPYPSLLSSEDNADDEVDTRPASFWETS
Compound,IC50 (c-Met enzyme) [nM],IC50 [1] [nM]
"Cn1cc(-c2cnc3nnn(CC4CCCN(c5ncc(C6=CCN(CCO)CC6)cn5)C4)c3n2)cn1 (centres unmarked) [Chemical formula 35, 2-(4-(2-(3-((6-(1-methyl-1H-pyrazol-4-yl)-1H-[1,2,3]triazolo[4,5-b]pyrazine-1-yl)methyl)piperidin-1-yl)pyrimidin-5-yl)-5,6-dihydropyridin-1(2H)-yl)ethanol]",3,2
"Cn1cc(-c2cnc3nnn(C[C@@H]4CN(c5ncc(C6=CCN(CCO)CC6)cn5)CCO4)c3n2)cn1 [Chemical formula 12, (S)-2-(4-(2-(2-((6-(1-methyl-1H-pyrazol-4-yl)-1H-[1,2,3]triazolo[4,5-b]pyrazin-1-yl)methyl)morpholino)pyrimidin-5-yl)-5,6-dihydropyridin-1(2H)-yl)ethanol]",4,0.96
"Cn1cc(-c2cnc3nnn(CC4CCCN(c5ncc(-c6cnn(CCO)c6)cn5)C4)c3n2)cn1 (centres unmarked) [Chemical formula 36, 2-(3-(2-(3-((6-(1-methyl-1H-pyrazol-4-yl)-1H-[1,2,3]triazolo[4,5-b]pyrazin-1-yl)methyl)piperidin-1-yl)pyrimidin-5-yl)-1H-pyrazol-1-yl)ethanolhydrochloride]",2,3.8
"N#Cc1cccc(-c2cnc3nnn(C[C@@H]4CN(c5ncc(-c6cnn(CCO)c6)cn5)CCO4)c3n2)c1 [Chemical formula 31, (S)-3-(1-((4-(5-(1-(2-hydroxyethyl)-1H-pyrazol-4-yl)pyrimidin-2-yl)morpholin-2-yl)methyl)-1H-[1,2,3]triazolo[4,5-b]pyrazin-6-yl)benzonitrile]",2,0.18
"CN1CCN(CCOc2ccc(-c3cnc(N4CCO[C@H](Cn5nnc6ncc(-c7cnn(C)c7)nc65)C4)nc3)cc2)CC1 [Chemical formula 15, (S)-2-((6-(1-methyl-1H-pyrazol-4-yl)-1H-[1,2,3]triazolo[4,5-b]pyrazin-1-yl)methyl)-4-(5-(4-(2-(4-methylpiperazin-1-yl)ethoxy)phenyl)pyrimidin-2-yl)morpholine]",6,
"CN1CCC(n2cc(-c3cnc(N4CCO[C@H](Cn5nnc6ncc(-c7cnn(C)c7)nc65)C4)nc3)cn2)CC1 [Chemical formula 7, (S)-2-((6-(1-methyl-1H-pyrazol-4-yl)-1H-[1,2,3]triazolo[4,5-b]pyrazin-1-yl)methyl)-4-(5-(1-(1-methylpiperidin-4-yl)-1H-pyrazol-4-yl)pyrimidin-2-yl)morpholine]",6,0.11
"Cn1cc(-c2cnc3nnn(C[C@@H]4CN(c5ncc(-c6cnn(C7CCNCC7)c6)cn5)CCO4)c3n2)cn1 [Chemical formula 4, (S)-2-((6-(1-methyl-1H-pyrazol-4-yl)-1H-[1,2,3]triazolo[4,5-b]pyrazin-1-yl)methyl)-4-(5-(1-(piperidin-4-yl)-1H-pyrazol-4-yl)pyrimidin-2-yl)morpholine HCl salt]",11,1.2
"N#Cc1cc(-c2cnc3nnn(C[C@@H]4CN(c5ncc(C6=CCN(CCO)CC6)cn5)CCO4)c3n2)ccc1F [Chemical formula 38, (S)-2-fluoro-5-(1-((4-(5-(1-(2-hydroxyethyl)-1,2,3,6-tetrahydropyridin-4-yl)pyrimidin-2-yl)morpholine-2-yl)methyl)-1H-[1,2,3]triazolo[4,5-b]pyrazin-6-yl)benzonitrile]",3,
"Cn1cc(-c2cnc3nnn(C[C@@H]4CN(c5ncc(-c6cnn(C7CCN(CCO)CC7)c6)cn5)CCO4)c3n2)cn1 [Chemical formula 8, (S)-2-(4-(4-(2-(2-((6-(1-methyl-1H-pyrazol-4-yl)-1H-[1,2,3]triazolo[4,5-b]pyrazin-1-yl)methyl)morpholino)pyrimidin-5-yl)-1H-pyrazol-1-yl)piperidin-1-yl)ethanol]",4,0.14
"Cn1cc(-c2cnc3nnn(C[C@@H]4CN(c5ncc(OCCN6CCOCC6)cn5)CCO4)c3n2)cn1 [Chemical formula 16, (S)-2-((6-(1-methyl-1H-pyrazol-4-yl)-1H-[1,2,3]triazolo[4,5-b]pyrazin-1-yl)methyl)-4-(5-(2-morpholinoethoxy)pyrimidin-2-yl)morpholine]",,2.1
"Cn1cc(-c2cnc3nnn(C[C@@H]4CN(c5ncc(-c6ccc(CN7CCOCC7)c(F)c6)cn5)CCO4)c3n2)cn1 [Chemical formula 42, (S)-4-(5-(3-fluoro-4-(morpholinomethyl)phenyl)pyrimidin-2-yl)-2-((6-(1-methyl-1H-pyrazol-4-yl)-1H-[1,2,3]triazolo[4,5-b]pyrazin-1-yl)methyl)morpholine]",4,
"CN1CCN(C(=O)c2ccc(-c3cnc(N4CCC[C@H](Cn5nnc6ncc(-c7cnn(C)c7)nc65)C4)nc3)cc2)CC1 [Chemical formula 48, (S)-(4-(2-(3-((6-(1-methyl-1H-pyrazol-4-yl)-1H-[1,2,3]triazolo[4,5-b]pyrazin-1-yl)methyl)piperidin-1-yl)pyrimidin-5-yl)phenyl)(4-methylpiperazin-1-yl)methanone]",6,
"CC(=O)N1CCN(Cc2ccc(-c3cnc(N4CCO[C@H](Cn5nnc6ncc(-c7cnn(C)c7)nc65)C4)nc3)cc2)CC1 [Chemical formula 45, (S)-1-(4-(4-(2-(2-((6-(1-methyl-1H-pyrazol-4-yl)-1H-[1,2,3]triazolo[4,5-b]pyrazin-1-yl)methyl)morpholino)pyrimidin-5-yl)benzyl)piperazin-1-yl)ethanone]",8,
"CN1CCN(Cc2ccc(-c3cnc(N4CCO[C@H](Cn5nnc6ncc(-c7cccc(C#N)c7)nc65)C4)nc3)cc2)CC1 [Chemical formula 49, (S)-3-(1-((4-(5-(4-((4-methylpiperazin-1-yl)methyl)phenyl)pyrimidin-2-yl)morpholin-2-yl)methyl)-1H-[1,2,3]triazolo[4,5-b]pyrazin-6-yl)benzonitrile]",8,
"CN1CC=C(c2cnc(N3CCCC(Cn4nnc5ncc(-c6cnn(C)c6)nc54)C3)nc2)CC1 (centres unmarked) [Chemical formula 34, 1-((1-(5-(1-methyl-1,2,3,6-tetrahydropyridin-4-yl)pyrimidin-2-yl)piperidin-3-yl)methyl)-6-(1-methyl-1H-pyrazol-4-yl)-1H-[1,2,3]triazolo[4,5-b]pyrazine]",3,15
"CN1CCN(C(=O)c2ccc(-c3cnc(N4CCO[C@H](Cn5nnc6ncc(-c7cnn(C)c7)nc65)C4)nc3)cc2)CC1 [Chemical formula 47, (S)-(4-(2-(2-((6-(1-methyl-1H-pyrazol-4-yl)-1H-[1,2,3]triazolo[4,5-b]pyrazin-1-yl)methyl)morpholino)pyrimidin-5-yl)phenyl)(4-methylpiperazin-1-yl) methanone]",13,
"CN1CCN(Cc2ccc(-c3cnc(N4CCO[C@H](Cn5nnc6ncc(-c7ccc(F)c(C#N)c7)nc65)C4)nc3)cc2F)CC1 [Chemical formula 39, (S)-2-fluoro-5-(1-((4-(5-(3-fluoro-4-((4-methylpiperazin-1-yl)methyl)phenyl)pyrimidin-2-yl)morpholine-2-yl)methyl)-1H-[1,2,3]triazolo[4,5-b]pyrazin-6-yl)benzonitrile]",2,
"CN1CCN(Cc2ccc(-c3cnc(N4CCO[C@H](Cn5nnc6ncc(-c7cnn(C)c7)nc65)C4)nc3)cc2F)CC1 [Chemical formula 40, (S)-4-(5-(3-fluoro-4-((4-methylpiperazin-1-yl)methyl)phenyl)pyrimidin-2-yl)-2-((6-(1-methyl-1H-pyrazol-4-yl)-1H-[1,2,3]triazolo[4,5-b]pyrazin-1-yl)methyl)morpholine]",2,
